Converted amounts (≈) assume the structure as drawn. “And” between values parts separate entries of the source, which are not always exact repeats. Identical values can stand only once. Like-named read-outs stand apart in the source and are kept apart here. Each block holds one compound with its values, some of them ahead of it.
Key:
Enterococcus (6 strains) = experiment: In vitro antibacterial activity, MIC by agar double dilution method; assay type: cell-based; conditions: clinical isolates, 35° C. 16 hrs
Excerpt: (§1) Experimental method: The agar double dilution method (Antimicrob. Agents and Chemother, 40, 1996, 720-726) was used to determine the minimum inhibitory concentration (MIC) of the series of compounds of the invention and the positive control drug linezolid for the test strains. The multipoint inoculation system (Denley A400) was employed to inoculate the bacteria on the agar plate surface with different concentrations of drugs; inoculation amount on each point was about 10^6 CFU/mL. The plates were incubated at 35° C. for 16 hrs before the results were observed. The lowest drug concentration contained in the Petri dish without bacterial growth was used as the minimum inhibitory concentration (MIC value) of the drug fir that strain.
(§2) Test strains: All the test strains were clinically isolated pathogens which were collected from the Nanjing region, and they were re-identified by routine methods before use. 31 strains of the clinically isolated pathogens were chosen, including 6 strains of Enterococcus, 5 Staphylococcus aureus sensitive strains; 5 Staphylococcus epidermidis sensitive strains; 6 Staphylococcus aureus resistant strains; 5 Staphylococcus epidermidis resistant strains; and 4 Streptococcus pneumoniae resistant strains.
(§3) Compounds to be tested were first added 2 ml of DMSO to help them fully dissolved, then added sterile double distilled water to the desired concentration; to all the Petri dish with added drug liquid were added 20 mL MIT medium which was heat-melted to be liquid-like, to make the final drug concentration in the Petri dish to be 64, 32, 16, 8, 4, 2, 1, 0.5, 0.25, 0.125, 0.0625, and 0.031 μg/mL.
(§4) The positive control group was LZ (linezolid, brand name Zyvox, approved by the FDA in 2000 to be firstly sold in the United States, which is the first and also the only one of oxazolidinone antibacterial drugs allowed to enter clinical application).

[1] = tested on: Staphylococcus aureus resistant strains (6 strains); experiment: as above; assay type: cell-based; conditions: clinical isolates
Excerpt: as §1, §2, §3, §4

[2] = tested on: Staphylococcus aureus sensitive strains (5 strains); experiment: as above; assay type: cell-based; conditions: clinical isolates
Excerpt: as §1, §2, §3, §4

[3] = tested on: Staphylococcus epidermidis resistant strains (5 strains); experiment: as above; assay type: cell-based; conditions: clinical isolates
Excerpt: as §1, §2, §3, §4

[4] = tested on: Staphylococcus epidermidis sensitive strains (5 strains); experiment: as above; assay type: cell-based; conditions: clinical isolates
Excerpt: as §1, §2, §3, §4

[5] = tested on: Streptococcus pneumoniae resistant strains (4 strains); experiment: as above; assay type: cell-based; conditions: clinical isolates
Excerpt: as §1, §2, §3, §4

[6] = In vivo pharmacokinetic assays in rats (intragastric and intravenous), plasma Compound 14 by LC-MS/MS; parameters: species or system SD rats
Method: Two routes of administration (intragastric administration and intravenous injection) were employed.
(§5) Intragastric administration: Four healthy SD rats, male, weight 200-250 g, were dosed 15 mg/kg; the delivery volume was 10 ml/kg, prepared with 0.5% CMC-Na. The rats were fasted for 12 hrs before administration, free water-drinking. 0.3 ml of venous blood was taken from the posterior venous plexus of rats to heparinized tubes at 0.25, 0.5, 1.0, 2.0, 3.0, 4.0, 5.0, 7.0, 9.0, 24, and 48 hrs after administration, centrifuged at 3500 rpm for 10 mins to separate the plasma, which was then stored at −20° C. for test.
as §5, with “Intravenous injection: Two” for “Intragastric administration: Four”, “200˜250” for “200-250”, “5” for “15”, “DMSO, Tween 80 and deionized water.” for “0.5% CMC-Na.”, “5 min, 15 min, and” for “0.25,”
The concentration of Compound 14 in plasma was determined by liquid chromatography tandem mass spectrometry.
In accordance with the above experimental methods, the inventor has determined the in vivo pharmacokinetic properties of phosphate (ester) disodium salt 37 of Compound 14 in rats.

[7] = as above; parameters: species or system SD rats; conditions: rats
[8] = 15 mg/kg Compound 14 intragastric, individual animals No. 15-18, 15 mg/kg
[9] = male, SD, rat, in vivo, po, 15 mg/kg, 15 mg/kg Compound 14 intragastric, average value
[10] = male, SD, rat, in vivo, po, 15 mg/kg, 15 mg/kg Compound 14 intragastric, individual animals No. 15-18
[11] = male, SD, rat, in vivo, iv, 5 mg/kg, 5 mg/kg Compound 14 intravenous injection, average value
[12] = 5 mg/kg Compound 14 intravenous injection, individual animals No. 19-21, 5 mg/kg

MIC (Enterococcus (6 strains)): 1 to 2 µg/mL (≈ 2.79 to 5.58 µM) | MIC [1]: 0.5 to 1 µg/mL (≈ 1.4 to 2.79 µM) | MIC [2]: 0.5 to 1 µg/mL (≈ 1.4 to 2.79 µM) | MIC [3]: 0.5 µg/mL (≈ 1.4 µM) | MIC [4]: 0.5 µg/mL (≈ 1.4 µM) | MIC [5]: 1 to 2 µg/mL (≈ 2.79 to 5.58 µM) | melting point: 150 to 152 °C
SMILES: O=C1O[C@@H](CO)[C@@H]2COc3cc(-c4ccc(C(O)CO)nc4)ccc3N12 (stereo partly drawn) [Compound 4, (3R,3aS)-7-(6-(1,2-dihydroxylethyl)pyridin-3-yl)-3-(hydroxylmethyl)-3a,4-dihydrobenzo[b]oxazolo[3,4-d][1,4]oxazin-1(3H)-one]

MIC (Enterococcus (6 strains)): 16 µg/mL (≈ 40.3 µM) | MIC [1]: 4 µg/mL (≈ 10.1 µM) | MIC [2]: 2 to 4 µg/mL (≈ 5.03 to 10.1 µM) | MIC [3]: 8 µg/mL (≈ 20.1 µM) | MIC [4]: 2 to 4 µg/mL (≈ 5.03 to 10.1 µM) | MIC [5]: 2 to 8 µg/mL (≈ 5.03 to 20.1 µM) | melting point: > 198 °C
SMILES: O=C1O[C@@H](CO)[C@@H]2COc3cc(-c4ccc(N5CCC(O)CC5)nc4)ccc3N12 [Compound 11, (3R,3aS)-3-(hydroxylmethyl)-7-(6-(4-hydroxylpiperidin-1-yl)pyridin-3-yl)-3a,4-dihydrobenzo[b]oxazolo[3,4-d][1,4]oxazin-1(3H)-one]

MIC (Enterococcus (6 strains)): 2 µg/mL (≈ 5.88 µM) | MIC [1]: 2 to 4 µg/mL (≈ 5.88 to 11.8 µM) | MIC [2]: 2 to 4 µg/mL (≈ 5.88 to 11.8 µM) | MIC [3]: 4 to 8 µg/mL (≈ 11.8 to 23.5 µM) | MIC [4]: 4 µg/mL (≈ 11.8 µM) | MIC [5]: 8 to 16 µg/mL (≈ 23.5 to 47 µM) | melting point: 199 to 201 °C
SMILES: CC(=O)c1ccc(-c2ccc3c(c2)OC[C@H]2[C@H](CO)OC(=O)N32)cn1 [Compound 13, (3R,3aS)-7-(6-acetylpyridin-3-yl)-3-(hydroxylmethyl)-3a,4-dihydrobenzo[b]oxazolo[3,4-d][1,4]oxazin-1(3H)-one]

SMILES: CN1CC(c2ccc(-c3ccc4c(c3)OC[C@H]3[C@H](CO)OC(=O)N43)cn2)OC1=O (stereo partly drawn) [Compound 14, (3R,3aS)-3-(hydroxylmethyl)-7-(6-(3-methyl-2-oxazolidin-5-yl)pyridin-3-yl)-3a,4-dihydrobenzo[b]oxazolo[3,4-d][1,4]oxazin-1(3H)-one]
MIC (Enterococcus (6 strains)): 1 to 2 µg/mL (≈ 2.52 to 5.03 µM) | MIC [1]: 0.5 to 1 µg/mL (≈ 1.26 to 2.52 µM) | MIC [2]: 0.5 to 1 µg/mL (≈ 1.26 to 2.52 µM) | MIC [3]: 0.25 to 1 µg/mL (≈ 0.629 to 2.52 µM) | MIC [4]: 0.25 to 0.5 µg/mL (≈ 0.629 to 1.26 µM) | MIC [5]: 1 µg/mL (≈ 2.52 µM) | AUC0-t [6, 8]: 2174 ng·h/mL and 2095 ng·h/mL and 2374 ng·h/mL | AUC0-∞ [6, 8]: 2290 ng·h/mL and 2165 ng·h/mL and 2440 ng·h/mL | Cmax [6, 8]: 474 ng/mL and 766 ng/mL and 878 ng/mL and 1117 ng/mL | MRT [6, 8]: 2.93 h and 2.03 h and 2.23 h | Tmax [6, 8]: 2.00 h and 0.50 h | t1/2 [6, 8]: 1.64 h and 2.34 h and 1.45 h | clearance ([6]; male, SD, rat, in vivo, 5 mg/kg Compound 14 intravenous injection, average value, read-out: CLz (plasma clearance) (converted)): 53.7 mL/min/kg | bioavailability ([6]; male, SD, rat, in vivo, 15 mg/kg, 15 mg/kg Compound 14 intragastric vs 5 mg/kg intravenous, dose corrected, read-out: F (absolute bioavailability)): 44.8% | Vd ([6]; male, SD, rat, in vivo, iv, 5 mg/kg, 5 mg/kg Compound 14 intravenous injection, average value, read-out: Vss (distribution volume)): 2.39 ± 0.42 L/kg | half-life [6, 9]: 1.93 ± 0.45 h | AUC(0-inf) [6, 10]: 1770 ng·h/mL | AUC(0-inf) [7, 11]: 1560 ng·h/mL | half-life [7, 11]: 2.51 ± 0.92 h | AUC0-t ([7]; male, SD, rat, in vivo, iv, 5 mg/kg, 5 mg/kg Compound 14 intravenous injection, average value, read-out: AUC0-t): 1540 ± 54 ng·h/mL | MRT ([7]; male, SD, rat, in vivo, iv, 5 mg/kg, 5 mg/kg Compound 14 intravenous injection, average value, read-out: MRT): 0.74 h | AUC(0-inf) ([7]; male, SD, rat, in vivo, iv, 5 mg/kg, 5 mg/kg Compound 14 intravenous injection, individual animals No. 19-21): 1600 ng·h/mL | AUC0-t ([7]; male, SD, rat, in vivo, iv, 5 mg/kg, 5 mg/kg Compound 14 intravenous injection, individual animals No. 19-21, read-out: AUC0-t): 1600 ng·h/mL | MRT ([7]; male, SD, rat, in vivo, iv, 5 mg/kg, 5 mg/kg Compound 14 intravenous injection, individual animals No. 19-21, read-out: MRT): 0.61 h | Vd ([7]; male, SD, rat, in vivo, iv, 5 mg/kg, 5 mg/kg Compound 14 intravenous injection, individual animals No. 19-21, read-out: Vss): 1.9 L/kg | AUC(0-inf) [7, 9]: 2170 ng·h/mL | Cmax [7, 9]: 809 ± 267 ng/mL | Tmax [7, 9]: 1 ± 0.71 h | AUC0-t ([7]; male, SD, rat, in vivo, po, 15 mg/kg, 15 mg/kg Compound 14 intragastric, average value, read-out: AUC0-t): 2070 ± 319 ng·h/mL | MRT ([7]; male, SD, rat, in vivo, po, 15 mg/kg, 15 mg/kg Compound 14 intragastric, average value, read-out: MRT): 2.64 h | half-life [7, 10]: 2.29 h | AUC0-t ([7]; male, SD, rat, in vivo, po, 15 mg/kg, 15 mg/kg Compound 14 intragastric, individual animals No. 15-18, read-out: AUC0-t): 1620 ng·h/mL | MRT ([7]; male, SD, rat, in vivo, po, 15 mg/kg, 15 mg/kg Compound 14 intragastric, individual animals No. 15-18, read-out: MRT): 3.36 h | AUC0-t [7, 12]: 1490 ng·h/mL and 1526 ng·h/mL | AUC0-∞ [7, 12]: 1510 ng·h/mL and 1555 ng·h/mL | CLz [7, 12]: 52 mL/min/kg and 55.2 mL/min/kg and 53.7 mL/min/kg | MRT [7, 12]: 0.79 h and 0.82 h | Vss [7, 12]: 2.62 L/kg and 2.64 L/kg | t1/2 [7, 12]: 1.62 h and 2.46 h and 3.45 h | F (absolute bioavailability) ([7]; 15 mg/kg Compound 14 intragastric vs 5 mg/kg intravenous, dose corrected): 44%
